Measurements as given in patent US4529720A, “Antibiotic from Streptomyces clavulicerus” (Beecham Group, p.l.c., priority 1974, dated 1985).
Counter-ions that a name gives are not always drawn.

Assays:
[1] = tested on: Staphylococcus aureus (Russell); assay: Antibacterial synergism, microtitre MIC (Example 42); format: cell-based
Staphylococcus aureus = assay: as above; format: cell-based; settings: Table 6
Klebsiella aerogenes A [2] = assay: as above; format: cell-based; settings: Table 8; method of Example 42
[3] = tested on: Klebsiella aerogenes E 70; assay: as above; format: cell-based; settings: Table 8; method of Example 42
Klebsiella aerogenes 62 = assay: as above; format: cell-based; settings: Table 8; method of Example 42
Klebsiella aerogenes A [4] = assay: Growth inhibition, alone and combined (description); format: cell-based; settings: 5 μg/ml of clavulanic acid also present
Stability in human blood = format: in vitro ADME
[5] = Hydrolysis of methyl ester in pH 7 phosphate buffer; format: physicochemical; settings: 1 mg/ml, 37° C., 0.05M phosphate buffer pH 7, followed over 2 hours
Procedure: The reaction was followed by paper chromatography (bioautographic system). Using the butanol/ethanol/water system to follow the reaction over a period of 2 hours the zone of the methyl ester at Rf 0.79 decreased in size as the zone of clavulanic acid at Rf 0.12 increased.

bacteria = assay: Tests for antibacterial activity in broth (Example 32); format: cell-based; settings: against bacteria resistant to these antibiotics

With O=C(Cc1cccs1)N[C@@H]1C(=O)N2C(C(=O)[O-])=C(C[n+]3ccccc3)CS[C@H]12 [Cephaloridine, cephaloridine] the “Minimum Inhibitory Concentration of cephaloridine when synergist added at 1 μg/ml” value ([1]; clavulanic acid sodium salt at 1 μg/ml, compared with <0.03 μg/ml at 5 μg/ml, footnote of Table 6) was “Same value” and the “Minimum Inhibitory Concentrations, Cephaloridine in presence of 5 μg/ml clavulanic acid sodium salt” value (Staphylococcus aureus; in presence of 5 μg/ml clavulanic acid sodium salt) was 3.7 µg/mL.
For CC1(C)S[C@@H]2[C@H](NC(=O)[C@H](N)c3ccccc3)C(=O)N2[C@H]1C(=O)O [Ampicillin, ampicillin], the “M.I.C., Ampicillin + 5 μg/ml of Benzyl Ester of clavulanic acid” value (Klebsiella aerogenes A [2]) was 1.9, the “M.I.C., Ampicillin + 5 μg/ml of Methyl Ester of clavulanic acid” value (Klebsiella aerogenes A [2]) was 1.9 and the “M.I.C., Ampicillin + 5 μg/ml of Benzyl Ester of clavulanic acid” value [3] was 3.9. For the same compound, the “M.I.C., Ampicillin + 5 μg/ml of Methyl Ester of clavulanic acid” value [3] was 3.9, the “M.I.C., Ampicillin + 5 μg/ml of Benzyl Ester of clavulanic acid” value (Klebsiella aerogenes 62) was 3.9 and the “M.I.C., Ampicillin + 5 μg/ml of Methyl Ester of clavulanic acid” value (Klebsiella aerogenes 62) was 3.9.
For CC1(C)S[C@@H]2[C@H](NC(=O)Cc3ccccc3)C(=O)N2[C@H]1C(=O)O [Benzylpenicillin, benzylpenicillin], the “concentration of penicillin inhibiting growth when clavulanic acid is also present” value (Klebsiella aerogenes A [4]) was “less than 12.5 μg/ml”.
For O=C(O)[C@H]1/C(=C/CO)O[C@@H]2CC(=O)N21 [clavulanic acid sodium salt, 3-(β-hydroxyethylidine)-7-oxo-4-oxa-1-azabicyclo[3,2,0]heptane-2-carboxylic acid sodium salt], the “Minimum Inhibitory Concentrations” value ([1]; agent alone, Table 6) was 15 µg/mL and the “Minimum Inhibitory Concentrations” value (Staphylococcus aureus; agent alone) was 62 µg/mL.
For O=C(O)[C@H]1/C(=C/CO)O[C@@H]2CC(=O)N21 [clavulanic acid, Z-(2R,5R)-3-(β-hydroxyethylidene)-7-oxo-4-oxa-1-azabicyclo[3,2,0]heptane-2-carboxylic acid], the “stability in human blood” value (Stability in human blood) was “high stability in human blood”.
For COC(=O)[C@H]1/C(=C/CO)O[C@@H]2CC(=O)N21 [clavulanic acid methyl ester], the “hydrolysis of the ester to clavulanic acid” value [5] was “Slow conversion of the ester to clavulanic acid”, the “hydrolysis of the ester to clavulanic acid” value ([5]; listed as methyl ester) was “slowly hydrolyse to clavulanic acid” and the “antibacterial synergism in combination with ampicillin or cephaloridine” value (bacteria) was “marked antibacterial synergism”.
